Common to all, as to format: cell-based
Assay [1] concerns Staphylococcus aureus 209-p. In words: Bactericidal test (MIC), Staphylococcus aureus 209-p. Conditions: (1) Staphylococcus aureus 209-p. The text has this: (§1) Results of bactericidal tests (MIC, r/ml) on the penicillin derivatives of this invention prepared in the above examples are shown in the following table.
The next assay concerns Bacillus subtilis. The experiment in a line: Bactericidal test (MIC), Bacillus subtilis. The following applies: (3) Bacillus subtilis.
Description: as §1

The subject of assay [2] is Salmonella typhimurium G-20. The experiment in a line: Bactericidal test (MIC), Salmonella typhimurium G-20. Conditions: Salmonella enterica; (4) Salmonella typhimurium G-20.
Description: as §1

The subject of assay [3] is Pseudomonas aeruginosa IFO-3080. In words: Bactericidal test (MIC), Pseudomonas aeruginosa IFO-3080. Conditions: IFO3080; (12) Pseudomonas aeruginosa IFO-3080; read-out: MIC.
Description: as §1

For the next assay, the system named is Morganella var. G-2. The experiment in a line: Bactericidal test (MIC), Morganella var. G-2. The following applies: VAR.G2; (9) Morganella var. G-2; read-out: MIC.
Description: as §1

Assay [4] deals with Pseudomonas aeruginosa Tid-53. In words: Bactericidal test (MIC), Pseudomonas aeruginosa Tid-53. Conditions: TID53; (14) Pseudomonas aeruginosa Tid-53.
Description: as §1

Assay [5] has as its system Pseudomonas aeruginosa 0-37. In words: Bactericidal test (MIC), Pseudomonas aeruginosa 0-37. The following applies: 037; (13) Pseudomonas aeruginosa 0-37.
Description: as §1

Assay [6] deals with Escherichia Coli NIHJ JC-2. The experiment in a line: Bactericidal test (MIC), Escherichia Coli NIHJ JC-2. Conditions: NIHJJC2; (5) Escherichia Coli NIHJ JC-2.
Description: as §1

Assay [7] concerns Pseudomonas aeruginosa 130. In words: Bactericidal test (MIC), Pseudomonas aeruginosa 130. Conditions: (16) Pseudomonas aeruginosa 130.
Description: as §1

Assay [8] has as its system Staphylococcus aureus 1248. The experiment in a line: Bactericidal test (MIC), Staphylococcus aureus 1248. The following applies: (2) Staphylococcus aureus 1248; read-out: MIC.
Description: as §1

A further assay has as its system Rettgerella var. Tid-21. In words: Bactericidal test (MIC), Rettgerella var. Tid-21. The following applies: (10) Rettgerella var. Tid-21; read-out: MIC.
Description: as §1

The subject of assay [9] is Klebsiella neumoniae ATCC10031. In words: Bactericidal test (MIC), Klebsiella neumoniae ATCC10031. Conditions: (6) Klebsiella neumoniae ATCC10031; read-out: MIC.
Description: as §1

Assay [10] deals with Enterobacter cloacae IF012937. In words: Bactericidal test (MIC), Enterobacter cloacae IF012937. Conditions: (8) Enterobacter cloacae IF012937.
Description: as §1

The next assay has as its system Serratia G-18. In words: Bactericidal test (MIC), Serratia G-18. Conditions: G18; (11) Serratia G-18; read-out: MIC.
Description: as §1

Assay [11] deals with Pseudomonas aeruginosa GN-315. In words: Bactericidal test (MIC), Pseudomonas aeruginosa GN-315. Conditions: GN315; (15) Pseudomonas aeruginosa GN-315.
Description: as §1

The subject of a further assay is Enterobactor cloacae 147. In words: Bactericidal test (MIC), Enterobactor cloacae 147. The following applies: (7) Enterobactor cloacae 147.
Description: as §1

Converted amounts (≈) assume the structure as drawn. Bounds are passed on as bounds.

One may read the MIC as the smallest concentration in the dilution series that meets the test's criterion for growth inhibition. For `CC1(C)S[C@@H]2[C@H](NC(=O)[C@H](NC(=O)c3cc4cc([N+](=O)[O-])ccc4oc3=O)c3ccccc3)C(=O)N2[C@H]1C(=O)O` [Example 13, D(-)-α-(6-Nitrocoumarin-3-carbonamido)benzylpenicillin], the MIC in [1] was below 0.4 µg/mL; with Bacillus subtilis it was below 0.4 µg/mL; in assay [2] it was below 0.4 µg/mL; in [3], 6.25 µg/mL (≈ 11 µM); with Morganella var. G-2, 6.25 µg/mL (≈ 11 µM); in assay [4], 25 µg/mL (≈ 44.1 µM). The MIC in assay [5] is 100 µg/mL (≈ 177 µM); in assay [6], below 0.4 µg/mL; in assay [7] it was 6.25 µg/mL (≈ 11 µM); in assay [8] it was 6.25 µg/mL (≈ 11 µM); with Rettgerella var. Tid-21, 50 µg/mL (≈ 88.3 µM); in assay [9], 12.5 µg/mL (≈ 22.1 µM). For the same compound, the MIC in assay [10] was found to be 12.5 µg/mL (≈ 22.1 µM); in the assay on Serratia G-18, 50 µg/mL (≈ 88.3 µM); in assay [11] it was 12.5 µg/mL (≈ 22.1 µM); in the assay on Enterobactor cloacae 147, 25 µg/mL (≈ 44.1 µM).
As for `CC(=O)Nc1ccc2oc(=O)c(C(=O)N[C@@H](C(=O)N[C@@H]3C(=O)N4[C@@H]3SC(C)(C)[C@@H]4C(=O)O)c3ccccc3)cc2c1` [Example 20, D(-)-α-(6-Acetylaminocoumarin-3-carbonamido)benzylpenicillin], the MIC in assay [1] was below 0.4 µg/mL; against Bacillus subtilis, below 0.4 µg/mL; in [2], below 0.4 µg/mL; in assay [3] it was 3.13 µg/mL (≈ 5.41 µM); in the assay with Morganella var. G-2, 6.25 µg/mL (≈ 10.8 µM); in assay [4] it was 6.25 µg/mL (≈ 10.8 µM). For the same compound, the MIC was 50 µg/mL (≈ 86.4 µM) in assay [5]; below 0.4 µg/mL in assay [6]; 1.56 µg/mL (≈ 2.7 µM) in assay [7]; 3.13 µg/mL (≈ 5.41 µM) in assay [8]; 6.25 µg/mL (≈ 10.8 µM) in the assay on Rettgerella var. Tid-21; 1.56 µg/mL (≈ 2.7 µM) in assay [9]. For the same compound, the MIC is 6.25 µg/mL (≈ 10.8 µM) in assay [10], 50 µg/mL (≈ 86.4 µM) in the assay on Serratia G-18, 6.25 µg/mL (≈ 10.8 µM) in [11] and 6.25 µg/mL (≈ 10.8 µM) against Enterobactor cloacae 147.
As for `CC(=O)Oc1ccc2oc(=O)c(C(=O)N[C@@H](C(=O)N[C@@H]3C(=O)N4[C@@H]3SC(C)(C)[C@@H]4C(=O)O)c3ccc(O)cc3)cc2c1` [Example 17, D(-)-α-(6-Acetoxycoumarin-3-carbonamido)-p-hydroxybenzylpenicillin], the MIC in [1] was below 0.4 µg/mL; against Bacillus subtilis, below 0.4 µg/mL; in assay [2] it was below 0.4 µg/mL; in assay [3], 0.8 µg/mL (≈ 1.34 µM); in the assay with Morganella var. G-2, 12.5 µg/mL (≈ 21 µM); in assay [4] it was 6.25 µg/mL (≈ 10.5 µM). Further, the MIC was 25 µg/mL (≈ 42 µM) in assay [5]; below 0.4 µg/mL in assay [6]; 1.56 µg/mL (≈ 2.62 µM) in assay [7]; 3.13 µg/mL (≈ 5.26 µM) in assay [8]; 3.13 µg/mL (≈ 5.26 µM) with Rettgerella var. Tid-21; 3.13 µg/mL (≈ 5.26 µM) in [9]. In addition, the MIC in [10] turned out to be 12.5 µg/mL (≈ 21 µM); in the assay with Serratia G-18, 50 µg/mL (≈ 84 µM); in assay [11], 3.13 µg/mL (≈ 5.26 µM); in the assay with Enterobactor cloacae 147 it was 12.5 µg/mL (≈ 21 µM).
Consider `COc1ccc2oc(=O)c(C(=O)N[C@@H](C(=O)N[C@@H]3C(=O)N4[C@@H]3SC(C)(C)[C@@H]4C(=O)O)c3ccccc3)cc2c1` [Example 7, D(-)-α-(6-Methoxycoumarin-3-carbonamido)benzylpenicillin], for which the MIC was below 0.4 µg/mL in assay [1]; below 0.4 µg/mL in the assay on Bacillus subtilis; below 0.4 µg/mL in assay [2]; 1.56 µg/mL (≈ 2.83 µM) in [3]; 6.25 µg/mL (≈ 11.3 µM) in the assay on Morganella var. G-2; 3.13 µg/mL (≈ 5.67 µM) in assay [4]. Besides, the minimal inhibitory concentration (MIC) in assay [5] was 25 µg/mL (≈ 45.3 µM); in assay [6], below 0.4 µg/mL; in assay [7] it was 1.56 µg/mL (≈ 2.83 µM); in assay [8] it was 1.56 µg/mL (≈ 2.83 µM); with Rettgerella var. Tid-21 it was 6.25 µg/mL (≈ 11.3 µM); in assay [9] it was below 0.4 µg/mL. Besides, the MIC in assay [10] was 3.13 µg/mL (≈ 5.67 µM); in the assay on Serratia G-18, 12.5 µg/mL (≈ 22.7 µM); in assay [11] it was 3.13 µg/mL (≈ 5.67 µM); in the assay on Enterobactor cloacae 147, 3.13 µg/mL (≈ 5.67 µM).

For the origin of these results see patent US4303664A, “Novel penicillin derivatives containing a coumarin nucleus and medicines containing the same” (Teijin Limited, priority 1978, dated 1981).
